# Target: human Nav1.8 (Homo sapiens (Human), UniProt Q9Y5Y9)
# Assay: E-VIPR optical membrane potential assay with electrical stimulation
# Type: cell-based
# Conditions: HEK cells expressing human Nav1.8
# Source text: Assays for Detecting and Measuring NaV Inhibition Properties of Compounds E-VIPR Optical Membrane Potential Assay Method with Electrical Stimulation
# Sodium channels are voltage-dependent proteins that can be activated by inducing membrane voltage changes by applying electric fields. The electrical stimulation instrument and methods of use are described in Ion Channel Assay Methods PCT/US01/21652, herein incorporated by reference and are referred to as E-VIPR. The instrument comprises a microtiter plate handler, an optical system for exciting the coumarin dye while simultaneously recording the coumarin and oxonol emissions, a waveform generator, a current- or voltage-controlled amplifier, and a device for inserting electrodes in well. Under integrated computer control, this instrument passes user-programmed electrical stimulus protocols to cells within the wells of the microtiter plate.
# 24 hours before the assay on E-VIPR, HEK cells expressing human Nav1.8 were seeded in 384-well poly-lysine coated plates at 15,000-20,000 cells per well. HEK cells were grown in media (exact composition is specific to each cell type and NaV subtype) supplemented with 10% FBS (Fetal Bovine Serum, qualified; GibcoBRL #16140-071) and 1% Pen-Strep (Penicillin-Streptomycin; GibcoBRL #15140-122). Cells were grown in vented cap flasks, in 90% humidity and 5% CO2.
# 100 mg/mL Pluronic F-127 (Sigma #P2443), in dry DMSO
# Compound Plates: 384-well round bottom plate, e.g. Corning 384-well Polypropylene Round Bottom #3656
# Cell Plates: 384-well tissue culture treated plate, e.g. Greiner #781091-1B
# Bath1 buffer: Glucose 10 mM (1.8 g/L), Magnesium Chloride (Anhydrous), 1 mM (0.095 g/L), Calcium Chloride, 2 mM (0.222 g/L), HEPES 10 mM (2.38 g/L), Potassium Chloride, 4.5 mM (0.335 g/L), Sodium Chloride 160 mM (9.35 g/L).
# Hexyl Dye Solution: Bath1 Buffer+0.5% β-cyclodextrin (make this prior to use, Sigma #C4767), 8 μM CC2-DMPE+2.5 μM DiSBAC6(3). To make the solution added volume of 10% Pluronic F127 stock equal to volumes of CC2-DMPE+DiSBAC6(3). The order of preparation was first mix Pluronic and CC2-DMPE, then added DiSBAC6(3) while vortexing, then added Bath1+β-Cyclodextrin.
# 1) Pre-spotted compounds (in neat DMSO) into compound plates. Vehicle control (neat DMSO), the positive control (20 mM DMSO stock tetracaine, 125 μM final in assay) and test compounds were added to each well at 160× desired final concentration in neat DMSO. Final compound plate volume was 80 μL (80-fold intermediate dilution from 1 μL DMSO spot; 160-fold final dilution after transfer to cell plate). Final DMSO concentration for all wells in assay was 0.625%.
# 2) Prepared Hexyl Dye Solution.
# 3) Prepared cell plates. On the day of the assay, medium was aspirated and cells were washed three times with 100 μL of Bath1 Solution, maintaining 25 μL residual volume in each well.
# 4) Dispensed 25 μL per well of Hexyl Dye Solution into cell plates. Incubated for 20-35 minutes at room temp or ambient conditions.
# 5) Dispensed 80 μL per well of Bath1 into compound plates. Acid Yellow-17 (1 mM) was added and Potassium Chloride was altered from 4.5 to 20 mM depending on the NaV subtype and assay sensitivity.
# 6) Washed cell plates three times with 100 μL per well of Bath1, leaving 25 μL of residual volume. Then transfered 25 uL per well from Compound Plates to Cell Plates. Incubated for 20-35 minutes at room temp/ambient condition.
# 7) Read Plate on E-VIPR. Used the current-controlled amplifier to deliver stimulation wave pulses for 10 seconds and a scan rate of 200 Hz. A pre-stimulus recording was performed for 0.5 seconds to obtain the un-stimulated intensities baseline. The stimulatory waveform was followed by 0.5 seconds of post-stimulation recording to examine the relaxation to the resting state.
# Data was analyzed and reported as normalized ratios of emission intensities measured in the 460 nm and 580 nm channels. The response as a function of time was reported as the ratios obtained using the following formula: […]
# Chain of human Nav1.8 (Q9Y5Y9 whole entry): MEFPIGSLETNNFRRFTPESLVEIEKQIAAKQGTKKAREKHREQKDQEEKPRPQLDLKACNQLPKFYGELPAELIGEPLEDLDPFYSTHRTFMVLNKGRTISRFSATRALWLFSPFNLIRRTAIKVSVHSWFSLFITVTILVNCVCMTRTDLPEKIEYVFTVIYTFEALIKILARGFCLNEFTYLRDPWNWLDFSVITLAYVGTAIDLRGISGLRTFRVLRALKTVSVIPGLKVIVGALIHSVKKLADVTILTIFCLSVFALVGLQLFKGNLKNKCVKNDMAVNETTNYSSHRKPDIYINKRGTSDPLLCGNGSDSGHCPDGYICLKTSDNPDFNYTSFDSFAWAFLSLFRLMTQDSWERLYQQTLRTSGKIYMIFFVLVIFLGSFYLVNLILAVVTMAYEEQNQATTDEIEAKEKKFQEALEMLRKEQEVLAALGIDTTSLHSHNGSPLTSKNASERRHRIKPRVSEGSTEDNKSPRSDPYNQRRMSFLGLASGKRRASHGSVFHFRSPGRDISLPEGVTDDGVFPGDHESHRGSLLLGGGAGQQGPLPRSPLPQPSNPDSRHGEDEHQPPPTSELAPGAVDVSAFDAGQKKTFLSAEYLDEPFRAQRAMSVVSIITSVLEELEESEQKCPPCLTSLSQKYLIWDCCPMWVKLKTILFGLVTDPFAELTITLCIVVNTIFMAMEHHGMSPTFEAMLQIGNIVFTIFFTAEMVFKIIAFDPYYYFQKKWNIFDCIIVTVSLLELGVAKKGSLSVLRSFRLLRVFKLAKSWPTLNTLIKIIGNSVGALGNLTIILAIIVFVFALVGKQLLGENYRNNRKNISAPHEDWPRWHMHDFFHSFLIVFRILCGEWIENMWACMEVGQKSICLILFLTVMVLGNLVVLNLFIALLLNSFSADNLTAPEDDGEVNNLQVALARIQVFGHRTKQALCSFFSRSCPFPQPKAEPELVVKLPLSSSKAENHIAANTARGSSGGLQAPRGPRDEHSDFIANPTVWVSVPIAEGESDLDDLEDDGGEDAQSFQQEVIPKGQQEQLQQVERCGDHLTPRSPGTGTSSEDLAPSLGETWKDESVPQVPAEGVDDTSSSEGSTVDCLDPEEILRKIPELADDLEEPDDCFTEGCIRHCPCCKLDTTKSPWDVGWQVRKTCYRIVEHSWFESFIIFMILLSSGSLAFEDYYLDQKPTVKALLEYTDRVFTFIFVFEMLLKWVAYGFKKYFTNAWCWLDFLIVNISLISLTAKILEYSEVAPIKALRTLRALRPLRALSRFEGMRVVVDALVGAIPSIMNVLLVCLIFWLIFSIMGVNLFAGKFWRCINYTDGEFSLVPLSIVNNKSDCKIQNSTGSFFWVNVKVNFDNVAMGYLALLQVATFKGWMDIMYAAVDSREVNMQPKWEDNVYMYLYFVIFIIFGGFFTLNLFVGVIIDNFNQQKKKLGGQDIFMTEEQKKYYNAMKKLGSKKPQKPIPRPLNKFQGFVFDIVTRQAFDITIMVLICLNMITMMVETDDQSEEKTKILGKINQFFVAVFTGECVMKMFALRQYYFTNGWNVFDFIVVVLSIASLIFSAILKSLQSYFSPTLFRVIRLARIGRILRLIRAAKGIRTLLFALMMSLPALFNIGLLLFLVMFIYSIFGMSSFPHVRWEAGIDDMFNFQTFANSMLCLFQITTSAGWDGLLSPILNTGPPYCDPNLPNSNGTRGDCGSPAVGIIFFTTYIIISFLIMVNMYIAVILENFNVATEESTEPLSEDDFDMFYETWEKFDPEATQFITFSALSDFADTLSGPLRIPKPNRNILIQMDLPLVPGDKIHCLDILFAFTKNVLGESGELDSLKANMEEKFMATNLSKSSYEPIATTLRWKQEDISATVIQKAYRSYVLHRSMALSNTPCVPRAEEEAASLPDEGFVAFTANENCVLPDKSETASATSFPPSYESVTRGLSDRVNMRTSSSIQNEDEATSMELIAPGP
row,SMILES,IC50
1,"Cc1cc(Cl)ccc1Oc1cc(Cl)c(Cl)cc1C(=O)Nc1ccc(C(=O)O)nc1 [Compound 38, 5-(4,5-dichloro-2-(4-chloro-2-methylphenoxy)benzamido)picolinic acid]",74 nM
2,"COc1ccc(Oc2cc(Cl)c(Cl)cc2C(=O)Nc2ccc(C(=O)O)nc2)c(Cl)c1 [Compound 43, 5-(4,5-dichloro-2-(2-chloro-4-methoxyphenoxy)benzamido)picolinic acid]",65 nM
3,"COc1ccc(Oc2cc(C(F)(F)F)cc(C(F)(F)F)c2C(=O)Nc2ccc(C(=O)O)nc2)cc1 [Compound 46, 5-(2-(4-methoxyphenoxy)-4,6-bis(trifluoromethyl)benzamido)picolinic acid]",66 nM
4,"O=C(O)c1ccc(NC(=O)c2c(Oc3ccc(F)cc3)cc(C(F)(F)F)cc2C(F)(F)F)cn1 [Compound 50, 5-(2-(4-fluorophenoxy)-4,6-bis(trifluoromethyl)benzamido)picolinic acid]",130 nM
5,"COc1cc(F)ccc1Oc1cc(Cl)c(Cl)cc1C(=O)Nc1ccc(C(=O)O)nc1 [Compound 51, 5-(4,5-dichloro-2-(4-fluoro-2-methoxyphenoxy)benzamido)picolinic acid]",9 nM
6,"CC(C)(C)c1ccc(C(=O)Nc2ccc(C(=O)O)nc2)c(Oc2ccc(F)cc2)c1 [Compound 54, 5-(4-(tert-butyl)-2-(4-fluorophenoxy)benzamido)picolinic acid]",180 nM
7,"O=C(O)c1ccc(NC(=O)c2ccccc2Oc2ccc(F)cc2)cn1 [Compound 55, 5-(2-(4-fluorophenoxy)benzamido)picolinic acid]",4350 nM
8,"O=C(O)c1ccc(NC(=O)c2ccc(C(F)(F)F)cc2Oc2ccc(F)cc2)cn1 [Compound 56, 5-(2-(4-fluorophenoxy)-4-(trifluoromethyl)benzamido)picolinic acid]",250 nM
9,"COc1cc(F)ccc1Oc1ccc(C(F)(F)F)cc1C(=O)Nc1ccc(C(=O)O)nc1 [Compound 57, 5-(2-(4-fluoro-2-methoxyphenoxy)-5-(trifluoromethyl)benzamido)picolinic acid]",96 nM
10,"O=C(O)c1ccc(NC(=O)c2cc(C(F)(F)F)ccc2Oc2ccc(F)cc2Cl)cn1 [Compound 58, 5-(2-(2-chloro-4-fluorophenoxy)-5-(trifluoromethyl)benzamido)picolinic acid]",80 nM
11,"COc1ccc(F)cc1Oc1ccc(C(F)(F)F)cc1C(=O)Nc1ccc(C(=O)O)nc1 [Compound 59, 5-(2-(5-fluoro-2-methoxyphenoxy)-5-(trifluoromethyl)benzamido)picolinic acid]",740 nM
12,"O=C(O)c1ccc(NC(=O)c2cc(C(F)(F)F)ccc2Oc2ccccc2OC(F)F)cn1 [Compound 60, 5-(2-(2-(difluoromethoxy)phenoxy)-5-(trifluoromethyl)benzamido)picolinic acid]",650 nM
13,"Cc1cc(Cl)ccc1Oc1ccc(C(F)(F)F)cc1C(=O)Nc1ccc(C(=O)O)nc1 [Compound 61, 5-(2-(4-chloro-2-methylphenoxy)-5-(trifluoromethyl)benzamido)picolinic acid]",145 nM
14,"COc1ccccc1Oc1ccc(C(F)(F)F)cc1C(=O)Nc1ccc(C(=O)O)nc1 [Compound 62, 5-(2-(2-methoxyphenoxy)-5-(trifluoromethyl)benzamido)picolinic acid]",370 nM
15,"O=C(O)c1ccc(NC(=O)c2cc(C(F)(F)F)ccc2Oc2ccccc2Cl)cn1 [Compound 63, 5-(2-(2-chlorophenoxy)-5-(trifluoromethyl)benzamido)picolinic acid]",430 nM
16,"CC(C)Oc1ccccc1Oc1ccc(C(F)(F)F)cc1C(=O)Nc1ccc(C(=O)O)nc1 [Compound 64, 5-(2-(2-isopropoxyphenoxy)-5-(trifluoromethyl)benzamido)picolinic acid]",755 nM

# More lines, in order of falling IC50, values ahead:
row,IC50,SMILES
1,64 nM,"COc1ccccc1Oc1cc(C(F)(F)F)cc(C(F)(F)F)c1C(=O)Nc1ccc(C(=O)O)nc1 [Compound 45, 5-(2-(2-methoxyphenoxy)-4,6-bis(trifluoromethyl)benzamido)picolinic acid]"
2,52 nM,"COc1ccc(Oc2cc(Cl)c(Cl)cc2C(=O)Nc2ccc(C(=O)O)nc2)c(F)c1 [Compound 34, 5-(4,5-dichloro-2-(2-fluoro-4-methoxyphenoxy)benzamido)picolinic acid]"
3,50 nM,"O=C(O)c1ccc(NC(=O)c2cc(Cl)c(Cl)cc2Oc2ccc(OCC(F)(F)F)cc2)cn1 [Compound 35, 5-(4,5-dichloro-2-(4-(2,2,2-trifluoroethoxy)phenoxy)benzamido)picolinic acid]"
4,46 nM,"O=C(O)c1ccc(NC(=O)c2cc(Cl)c(Cl)cc2Oc2ccccc2OC(F)F)cn1 [Compound 37, 5-(4,5-dichloro-2-(2-(difluoromethoxy)phenoxy)benzamido)picolinic acid]"
5,46 nM,"Cc1cc(F)ccc1Oc1cc(C(C)(C)C)ccc1C(=O)Nc1ccc(C(=O)O)nc1 [Compound 53, 5-(4-(tert-butyl)-2-(4-fluoro-2-methylphenoxy)benzamido)picolinic acid]"
6,42 nM,"Cc1cc(F)ccc1Oc1cc(C(F)(F)F)cc(C(F)(F)F)c1C(=O)Nc1ccc(C(=O)O)nc1 [Compound 47, 5-(2-(4-fluoro-2-methylphenoxy)-4,6-bis(trifluoromethyl)benzamido)picolinic acid]"
7,39 nM,"COc1cc(Cl)ccc1Oc1cc(Cl)c(Cl)cc1C(=O)Nc1ccc(C(=O)O)nc1 [Compound 36, 5-(4,5-dichloro-2-(4-chloro-2-methoxyphenoxy)benzamido)picolinic acid]"
8,39 nM,"COc1ccc(Oc2ccc(C(F)(F)F)cc2C(=O)Nc2ccc(C(=O)O)nc2)c(OC)c1 [Compound 65, 5-(2-(2,4-dimethoxyphenoxy)-5-(trifluoromethyl)benzamido)picolinic acid]"
9,34 nM,"COc1ccc(Oc2cc(Cl)c(Cl)cc2C(=O)Nc2ccc(C(=O)O)nc2)cc1F [Compound 40, 5-(4,5-dichloro-2-(3-fluoro-4-methoxyphenoxy)benzamido)picolinic acid]"
10,31 nM,"O=C(O)c1ccc(NC(=O)c2cc(Cl)c(Cl)cc2Oc2ccc(F)cc2F)cn1 [Compound 42, 5-(4,5-dichloro-2-(2,4-difluorophenoxy)benzamido)picolinic acid]"
11,31 nM,"COc1cc(F)ccc1Oc1cc(C(C)(C)C)ccc1C(=O)Nc1ccc(C(=O)O)nc1 [Compound 52, 5-(4-(tert-butyl)-2-(4-fluoro-2-methoxyphenoxy)benzamido)picolinic acid]"
12,20 nM,"O=C(O)c1ccc(NC(=O)c2cc(Cl)c(Cl)cc2Oc2ccc(OC(F)(F)F)cc2)cn1 [Compound 44, 5-(4,5-dichloro-2-(4-(trifluoromethoxy)phenoxy)benzamido)picolinic acid]"
13,15 nM,"COc1ccc(Oc2cc(Cl)c(Cl)cc2C(=O)Nc2ccc(C(=O)O)nc2)c(OC)c1 [Compound 39, 5-(4,5-dichloro-2-(2,4-dimethoxyphenoxy)benzamido)picolinic acid]"
14,14 nM,"COc1cc(F)ccc1Oc1cc(C(F)(F)F)cc(C(F)(F)F)c1C(=O)Nc1ccc(C(=O)O)nc1 [Compound 48, 5-(2-(4-fluoro-2-methoxyphenoxy)-4,6-bis(trifluoromethyl)benzamido)picolinic acid]"
15,12 nM,"O=C(O)c1ccc(NC(=O)c2cc(Cl)c(Cl)cc2Oc2ccc(F)cc2Cl)cn1 [Compound 41, 5-(4,5-dichloro-2-(2-chloro-4-fluorophenoxy)benzamido)picolinic acid]"
16,6 nM,"COc1ccc(Oc2cc(C(F)(F)F)cc(C(F)(F)F)c2C(=O)Nc2ccc(C(=O)O)nc2)c(OC)c1 [Compound 49, 5-(2-(2,4-dimethoxyphenoxy)-4,6-bis(trifluoromethyl)benzamido)picolinic acid]"
